Measured values from patent US11951169B2, “Pharmaceutical preparation with curcuminoids nanoparticles and a method for producing the same” (AASTAR PTE LTD, priority 2019, dated 2024).

Assay: Dissolution test (USP apparatus Type II paddles) of capsules containing the gel liquid, HPLC analysis
Type: physicochemical
Details: capsule
Description: An Agilent 1260 Infinity HPLC system consists of a G1330B thermostat, a G1329B auto-injector, a G13150 diode array detector, a G1322A degasser and a high-pressure binary pump. Signal/Noise ratio of the chromatogram generated from this HPLC was used for qualitative and quantitative analyses in this study. The column used was an Angilent Poroshell 120 EC-C18 ([…], 2.7 am). The HPLC was run for 10 minutes at a column temperature of 35° C. under a flow rate of 0.3 ml/min with injection volume being 5 μl. The detection spectrum was set at 426 nm using an elusion medium comprising acetonitrile and 0.1% of aqueous formic acid in a volume ratio of 1:2.
2.0 g of NaCl and 7 ml of HCl were dissolved in 1 L of ultrapure water. The pH was adjusted to 1.2, by using 2M NaOH. 13.121 g of Na2HPO4 were dissolved in 1 L of ultrapure water. The pH was adjusted to 6.8.
A Vankel Varain VK 70000 Dissolution System consisting of VK7000 dissolution system, VK 750D heating circulator, system monitor, 6 Vankel vessels and apparatus Type II paddles, was used in the preparation of a dissolution sample from capsules containing the gel liquid.
The dissolution test was performed in compliance with United States Pharmacopoeia using apparatus Type II paddles. […] 6 capsules were added into 6 vessels respectively. […] 2 μl of the filtrate was injected into the HPLC system for analysis.
Further, 250 ml of pH 6.8 solution was added to the same vessel at 45 minutes and the pH was adjusted to 6.8 using 2M NaOH within 5 minutes. 1-2 ml of the dissolution sample was then collected after 60 minutes, 75 minutes and 120 minutes followed by filtering through a 0.45 μm membrane immediately. 2 μl of the filtrate was injected into the HPLC system for analysis.

Weight dissolved (pH 1.2, 10 min) [µg] | Weight dissolved (pH 1.2, 15 min) [µg] | Weight dissolved (pH 1.2, 30 min) [µg] | Weight dissolved (pH 6.8, 45 min) [µg] | Weight dissolved (pH 6.8, 60 min) [µg] | Weight dissolved (pH 6.8, 75 min) [µg] | Weight dissolved (pH 6.8, 120 min) [µg] | SMILES
590 ± 78 | 4250 ± 686 | 18908 ± 1819 | 24155 ± 1397 | 23746 ± 1347 | 23497 ± 1859 | 23937 ± 1826 | COc1cc(/C=C/C(=O)CC(=O)/C=C/c2ccc(O)c(OC)c2)ccc1O [Curcumin, curcumin]
– | 195 ± 22 | 831 ± 87 | 745 ± 48 | 747 ± 45 | 739 ± 68 | 763 ± 69 | COc1cc(/C=C/C(=O)CC(=O)/C=C/c2ccc(O)cc2)ccc1O [DMC, demthoxycurcumin]
